Measurements: patent US20230374015A1, “INHIBITORS OF FIBROBLAST GROWTH FACTOR RECEPTOR KINASES” (Kinnate Biopharma Inc., priority 2020, published 2023)
pIC50: −log10 of the molar value. Counter-ions that a name gives are not always drawn.

Target: FGFR2 (Homo sapiens, UniProt P21802)
Assay: FGFR2 Kinase Protocol - Condition 2 (Reaction Biology HotSpot radiometric kinase assay, no preincubation)
Assay type: biochemical
Settings: poly[Glu:Tyr] (4:1) 0.2 mg/ml, ATP 100 microM, 2 hr room temperature
Protocol: Example 2: FGFR2 Kinase Protocol—Condition 2
The Reaction Biology HotSpot assay platform (http://www.reactionbiology.com) was used to measure kinase/inhibitor interactions as described previously (Anastassiadis et al., 2011). In brief, for each reaction, kinase and substrate were mixed in a buffer containing 20 mM HEPES (pH 7.5), 10 mM MgCl2, 1 mM EGTA, 0.02% Brij35, 0.02 mg/mL BSA, 0.1 mM Na3VO4, 2 mM DTT, and 1% DMSO. All compounds were in powder form and freshly solubilized in DMSO for assays. Compounds were then added to each reaction mixture via acoustic dispense using an ECHO 550 nanoliter dispenser. For Human FGFR2 wildtype testing, a peptide substrate, poly[Glu:Tyr] (4:1) was used to promote the reaction at a concentration of 0.2 mg/ml. For Human FGFR2 (V564F) testing, a peptide substrate, poly[Glu:Tyr] (4:1) was used to promote the reaction at a concentration of 0.2 mg/ml. ATP concentration for all assays was maintained at 100 micromolar. Compounds were tested in 10-dose IC50 mode with a 3-fold serial dilution. Compounds were added to plates and ATP was added directly to the wells. ATP (Sigma-Aldrich, St. Louis, MO 63178) and [g33P] ATP (specific activity 10 microCi/microliter) purchased at PerkinElmer (Boston, MA, 02118 Cat #BLU 003H250UC) were added at a final total concentration of 100 microM to each well with no preincubation. Reactions were carried out at room temperature for 2 hr and spotted onto P81 ion exchange cellulose chromatography paper (Reaction Biology). Filter paper was washed in 0.75% phosphoric acid to remove unincorporated ATP. The percent remaining kinase activity relative to a vehicle-containing (DMSO) kinase reaction was calculated for each kinase/inhibitor pair. IC50 values were calculated using Dotmatics Knowledge Solutions Studies curve fitting (Dotmatics, Bishops Stortford, UK, CM23).

Chain of FGFR2 (P21802 22-821): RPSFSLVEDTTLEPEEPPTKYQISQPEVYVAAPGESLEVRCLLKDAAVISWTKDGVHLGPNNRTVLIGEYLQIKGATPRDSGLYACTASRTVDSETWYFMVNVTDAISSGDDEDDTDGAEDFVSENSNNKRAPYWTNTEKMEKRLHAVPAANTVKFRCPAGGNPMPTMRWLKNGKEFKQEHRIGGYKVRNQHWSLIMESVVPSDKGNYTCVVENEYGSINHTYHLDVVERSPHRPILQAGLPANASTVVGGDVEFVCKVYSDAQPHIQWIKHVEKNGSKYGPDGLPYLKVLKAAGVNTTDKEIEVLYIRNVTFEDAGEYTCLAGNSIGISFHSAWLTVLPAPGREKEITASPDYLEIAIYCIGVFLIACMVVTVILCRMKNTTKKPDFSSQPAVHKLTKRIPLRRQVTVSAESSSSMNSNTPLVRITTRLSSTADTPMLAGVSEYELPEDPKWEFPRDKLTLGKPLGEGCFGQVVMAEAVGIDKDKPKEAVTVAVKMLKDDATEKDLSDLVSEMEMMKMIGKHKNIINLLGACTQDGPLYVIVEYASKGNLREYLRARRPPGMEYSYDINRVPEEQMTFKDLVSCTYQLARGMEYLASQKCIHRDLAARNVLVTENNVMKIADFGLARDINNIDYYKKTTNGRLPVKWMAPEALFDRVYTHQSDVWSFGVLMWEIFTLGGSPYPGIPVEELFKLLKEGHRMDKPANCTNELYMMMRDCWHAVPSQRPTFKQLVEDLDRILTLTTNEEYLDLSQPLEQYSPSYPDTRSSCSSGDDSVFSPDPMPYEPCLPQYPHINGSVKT

| Compound | pIC50 |
| --- | --- |
| C=CC(=O)N1C[C@@H](n2cc(C#Cc3c(F)cc4c(ncn4C(F)F)c3F)c3c(N)ncnc32)C[C@@H]1COC [Example 69, 1-[(2R,4S)-4-(4-Amino-5-[2-[1-(difluoromethyl)-4,6-difluoro-1,3-benzodiazol-5-yl]ethynyl]pyrrolo[2,3-d]pyrimidin-7-yl)-2-(methoxymethyl)pyrrolidin-1-yl]prop-2-en-1-one] | ≥ 7.00 |
| C=CC(=O)N1C[C@@H](n2nc(C#Cc3cc4ncn(CC)c4cc3Cl)c3c(N)ncnc32)C[C@@H]1C(F)F [Example 180, 1-((2R,4S)-4-(4-amino-3-((6-chloro-1-ethyl-1H-benzo[d]imidazol-5-yl)ethynyl)-1H-pyrazolo[3,4-d]pyrimidin-1-yl)-2-(difluoromethyl)pyrrolidin-1-yl)prop-2-en-1-one] | ≥ 7.00 |
| C=CC(=O)N1C[C@@H](n2nc(C#Cc3c(F)cc4c(nc(C)n4CC)c3F)c3c(N)ncnc32)C[C@@H]1COC [Example 32, 1-((2R,4S)-4-(4-amino-3-((1-ethyl-4,6-difluoro-2-methyl-1H-benzo[d]imidazol-5-yl)ethynyl)-1H-pyrazolo[3,4-d]pyrimidin-1-yl)-2-(methoxymethyl)pyrrolidin-1-yl)prop-2-en-1-one] | ≥ 7.00 |
| C=CC(=O)N1C[C@@H](n2nc(C#Cc3cc4ncn(C5CC5)c4cc3F)c3c(N)ncnc32)C[C@@H]1CF [Example 197, 1-((2R,4S)-4-(4-Amino-3-((1-cyclopropyl-6-fluoro-1H-benzo[d]imidazol-5-yl)ethynyl)-1H-pyrazolo[3,4-d]pyrimidin-1-yl)-2-(fluoromethyl)pyrrolidin-1-yl)prop-2-en-1-one] | ≥ 7.00 |
| C=CC(=O)N1C[C@@H](n2nc(C#Cc3cc4nc(C)[nH]c4cc3Cl)c3c(N)nccc32)C[C@@H]1COC [Example 100, 1-[(2R,4S)-4-[4-Amino-3-[2-(6-chloro-2-methyl-1H-1,3-benzodiazol-5-yl)ethynyl]pyrazolo[4,3-c]pyridin-1-yl]-2-(methoxymethyl)pyrrolidin-1-yl]prop-2-en-1-one] | ≥ 7.00 |
| [2H]C([2H])([2H])OC[C@H]1C[C@H](n2nc(C#Cc3c(F)cc4c(ncn4C)c3F)c3c(N)ncnc32)CN1C(=O)C=C [Example 134, 1-[(2R,4S)-4-[4-Amino-3-[2-(4,6-difluoro-1-methyl-1,3-benzodiazol-5-yl)ethynyl]pyrazolo[3,4-d]pyrimidin-1-yl]-2-[(2H3)methoxymethyl]pyrrolidin-1-yl]prop-2-en-1-one] | ≥ 7.00 |
| C=CC(=O)N1C[C@@H](n2nc(C#Cc3c(F)cc4c(ncn4C4CC4)c3F)c3c(N)ncnc32)C[C@@H]1COC(F)(F)F [Example 76, 1-[(2R,4S)-4-[4-Amino-3-[2-(1-cyclopropyl-4,6-difluoro-1,3-benzodiazol-5-yl)ethynyl]pyrazolo[3,4-d]pyrimidin-1-yl]-2-[(trifluoromethoxy)methyl]pyrrolidin-1-yl]prop-2-en-1-one] | ≥ 7.00 |
| C=CC(=O)N1C[C@@H](n2nc(C#Cc3cc4ncn(C)c4cc3F)c3c(N)ncnc32)C[C@@H]1COC [Example 62, 1-[(2R,4S)-4-[4-Amino-3-[2-(6-fluoro-1-methyl-1,3-benzodiazol-5-yl)ethynyl]pyrazolo[3,4-d]pyrimidin-1-yl]-2-(methoxymethyl)pyrrolidin-1-yl]prop-2-en-1-one] | ≥ 7.00 |
| C=CC(=O)N1C[C@@H](n2cc(C#Cc3cc4ncn(CC)c4cc3F)c3c(N)ncnc32)C[C@@H]1COC [Example 80, 1-[(2R,4S)-4-[4-Amino-5-[2-(1-ethyl-6-fluoro-1,3-benzodiazol-5-yl)ethynyl]pyrrolo[2,3-d]pyrimidin-7-yl]-2-(methoxymethyl)pyrrolidin-1-yl]prop-2-en-1-one] | ≥ 7.00 |
| C=CC(=O)N1CC[C@H](c2nc(C#Cc3cc4ncn(C5CC5)c4cc3F)c3c(N)nccn23)C1 [Example 201, 1-[(3 S)-3-{8-Amino-1-[2-(1-cyclopropyl-6-fluoro-1,3-benzodiazol-5-yl)ethynyl]imidazo[1,5-a]pyrazin-3-yl}pyrrolidin-1-yl]prop-2-en-1-one] | 6.00 to 7.00 |

The next lines start with the values.

| pIC50 | Compound |
| --- | --- |
| ≥ 7.00 | C=CC(=O)N1C[C@@H](n2nc(C#Cc3c(Cl)cc4c(ncn4C)c3F)c3c(N)ncnc32)C[C@@H]1COC [Example 104, 1-[(2R,4S)-4-[4-Amino-3-[2-(6-chloro-4-fluoro-1-methyl-1,3-benzodiazol-5-yl)ethynyl]pyrazolo[3,4-d]pyrimidin-1-yl]-2-(methoxymethyl)pyrrolidin-1-yl]prop-2-en-1-one] |
| ≥ 7.00 | C=CC(=O)N1CC[C@H](n2nc(C#Cc3cc4ncn(C)c4cc3F)c3c(N)ncnc32)C1 [Example 140, 1-[(3S)-3-{4-Amino-3-[2-(6-fluoro-1-methyl-1,3-benzodiazol-5-yl)ethynyl]pyrazolo[3,4-d]pyrimidin-1-yl}pyrrolidin-1-yl]prop-2-en-1-one] |
| ≥ 7.00 | C=CC(=O)N1C[C@@H](n2cc(C#Cc3cc4ncn(C)c4cc3F)c3c(N)ncnc32)C[C@@H]1CF [Example 186, 1-((2R,4S)-4-(4-Amino-5-((6-fluoro-1-methyl-1H-benzo[d]imidazol-5-yl)ethynyl)-7H-pyrrolo[2,3-d]pyrimidin-7-yl)-2-(fluoromethyl)pyrrolidin-1-yl)prop-2-en-1-one] |
| ≥ 7.00 | C=CC(=O)N1C[C@@H](n2nc(C#Cc3cc4ncn(CC)c4c(F)c3F)c3c(N)ncnc32)C[C@@H]1COC [Example 123, 1-[(2R,4S)-4-[4-Amino-3-[2-(1-ethyl-6,7-difluoro-1,3-benzodiazol-5-yl)ethynyl]pyrazolo[3,4-d]pyrimidin-1-yl]-2-(methoxymethyl)pyrrolidin-1-yl]prop-2-en-1-one] |
| ≥ 7.00 | C=CC(=O)N1C[C@@H](n2nc(C#Cc3ccc4c(c3)nc(C(F)(F)F)n4C)c3c(N)nccc32)C[C@@H]1COC [Example 47, 1-((2R,4S)-4-(4-amino-3-((1-methyl-2-(trifluoromethyl)-1H-benzo[d]imidazol-5-yl)ethynyl)-1H-pyrazolo[4,3-c]pyridin-1-yl)-2-(methoxymethyl)pyrrolidin-1-yl)prop-2-en-1-one] |
| ≥ 7.00 | C=CC(=O)N1C[C@@H](n2nc(C#Cc3cc4ncn(C5CC5)c4cc3F)c3c(N)ncnc32)C[C@@H]1C(F)F [Example 178, 1-((2R,4S)-4-(4-amino-3-((1-cyclopropyl-6-fluoro-1H-benzo[d]imidazol-5-yl)ethynyl)-1H-pyrazolo[3,4-d]pyrimidin-1-yl)-2-(difluoromethyl)pyrrolidin-1-yl)prop-2-en-1-one] |
| ≥ 7.00 | C=CC(=O)N1C[C@@H](n2cc(C#Cc3cc4nc(C)n(C)c4cc3Cl)c3c(N)ncnc32)C[C@@H]1COC [Example 101, 1-[(2R,4S)-4-[4-Amino-5-[2-(6-chloro-1,2-dimethyl-1,3-benzodiazol-5-yl)ethynyl]pyrrolo[2,3-d]pyrimidin-7-yl]-2-(methoxymethyl)pyrrolidin-1-yl]prop-2-en-1-one] |
| ≥ 7.00 | C=CC(=O)N1C[C@@H](n2nc(C#Cc3cc4ncn(C)c4cc3F)c3c(N)nccc32)C[C@@H]1COC(F)(F)F [Example 59, 1-((2R,4S)-4-(4-amino-3-((6-fluoro-1-methyl-1H-benzo[d]imidazol-5-yl)ethynyl)-1H-pyrazolo[4,3-c]pyridin-1-yl)-2-((trifluoromethoxy)methyl)pyrrolidin-1-yl)prop-2-en-1-one formate] |
| ≥ 7.00 | C=CC(=O)N1C[C@@H](n2nc(C#Cc3c(F)cc4c(ncn4CC)c3F)c3c(N)ncnc32)C[C@@H]1COC(F)(F)F [Example 70, 1-((2R,4S)-4-(4-Amino-3-((1-ethyl-4,6-difluoro-1H-benzo[d]imidazol-5-yl)ethynyl)-1H-pyrazolo[3,4-d]pyrimidin-1-yl)-2-((trifluoromethoxy)methyl)pyrrolidin-1-yl)prop-2-en-1-one] |
| ≥ 7.00 | C=CC(=O)N1C[C@@H](n2nc(C#Cc3cc4nc(C)n(C)c4c(F)c3F)c3c(N)ncnc32)C[C@@H]1COC [Example 122, 1-[(2R,4S)-4-[4-Amino-3-[2-(6,7-difluoro-1,2-dimethyl-1,3-benzodiazol-5-yl)ethynyl]pyrazolo[3,4-d]pyrimidin-1-yl]-2-(methoxymethyl)pyrrolidin-1-yl]prop-2-en-1-one] |
| ≥ 7.00 | C=CC(=O)N1C[C@@H](n2nc(C#Cc3cc4nc(C)n(C)c4cc3Cl)c3c(N)nccc32)C[C@@H]1COC [Example 97, 1-[(2R,4S)-4-[4-Amino-3-[2-(6-chloro-1,2-dimethyl-1,3-benzodiazol-5-yl)ethynyl]pyrazolo[4,3-c]pyridin-1-yl]-2-(methoxymethyl)pyrrolidin-1-yl]prop-2-en-1-one] |
| ≥ 7.00 | C=CC(=O)N1C[C@@H](n2nc(C#Cc3cc4ncn(C5CC5)c4cc3Cl)c3c(N)nccc32)C[C@@H]1COC [Example 138, 1-[(2R,4S)-4-{4-Amino-3-[2-(6-chloro-1-cyclopropyl-1,3-benzodiazol-5-yl)ethynyl]pyrazolo[4,3-c]pyridin-1-yl}-2-(methoxymethyl)pyrrolidin-1-yl]prop-2-en-1-one] |
